What follows are molecules tested on mt-Keima HEK 293T cells (assay: In vitro activation of mitophagy in mt-Keima 293T cells). Details: 10 μM, 6 hours.
Assay type: cell-based, human
Protocol: The specific method was as follows:
293T cells were cultured and passaged in the normal way, and inoculated in a 24-well plate, with 0.5 mL inoculated in each well. The cell density was 5×10^4 cells/mL, and a total of 2.5×10^4 cells were inoculated. Before inoculation, the cells in the centrifuge tube were pipetted evenly to ensure that the cell density at the beginning and at the end was consistent. After standing for 5-10 minutes, the plate was gently placed in the incubator. After overnight incubation, the original complete medium was removed, and 0.3 mL of a complete medium solution containing 1.5×10^5 TU lentiviruses was added to each well. After incubation at 37° C. for 8 hours, 200 μL of the complete medium was added to each well. After 24 hours of transfection, the medium was replaced until the cell density reached 80-90%, and the cells were digested and passaged a T25 flask. […] The successfully transfected cells were screened using a complete medium containing 0.5 μg/mL of a puromycin hydrochloride solution, and maintained with 0.25 μg/mL of the solution.
The confocal dishes were inoculated with 1 mL per dish, with a cell density of 2×10^5 cells/mL. After standing for 5-10 minutes, the dishes were gently placed in the incubator. When the cells grew to 30-40%, the drug was administered. After treating mt-Keima cells with 10 μM different iridoid monomer ingredients from the male flowers of Eucommia ulmoides Oliver or 10 μM CCCP for 6 hours, the medium was replaced with a fresh complete medium, and then live-cell confocal observation was performed directly. Confocal parameters: the excitation wavelengths were 440 nm and 596 nm each, and the emission wavelength was 620 nm, observed by a 40× water immersion objective.

Row | Molecule | mitophagy activation
1 | carbonyl cyanide ester-3-chlorophenylhydrazone [CCCP] | significantly induced the occurrence of mitophagy
2 | O=C(O)C1=CO[C@@H](O[C@@H]2O[C@H](CO)[C@@H](O)[C@H](O)[C@H]2O)[C@@H]2C(CO)=CC[C@H]12 [geniposidic acid] | have mitophagy-activating activity
3 | CC(=O)OCC1=C[C@@H]2OC(=O)C3=CO[C@@H](O[C@@H]4O[C@H](CO)[C@@H](O)[C@H](O)[C@H]4O)[C@H]1[C@@H]32 [asperuloside] | had mitophagy-activating activity
4 | OCC1=C[C@@H](O)[C@@H]2C=CO[C@@H](O[C@@H]3O[C@H](CO)[C@@H](O)[C@H](O)[C@H]3O)[C@H]12 [aucubin] | have mitophagy-activating activity
5 | COC(=O)C1=CO[C@@H](O[C@@H]2O[C@H](CO)[C@@H](O)[C@H](O)[C@H]2O)[C@@H]2C(CO)=CC[C@H]12 [geniposide] | have mitophagy-activating activity

Same assay, conditions: 10 μM, 6 hours, same concentration

Row | Molecule | comparison of the average fluorescence density ratio
6 | CC(=O)OCC1=C[C@@H]2OC(=O)C3=CO[C@@H](O[C@@H]4O[C@H](CO)[C@@H](O)[C@H](O)[C@H]4O)[C@H]1[C@@H]32 [asperuloside] | better than that of the other three monomer ingredients
